# Where two headings read alike, the source gives them in different places.
# Legend:
# [1] = tested on: P. aeruginosa PA 27853 and resistant isolates MR1, MR2, MR3; assay: microbe, parasite or virus in culture; type: cell-based, Pseudomonas aeruginosa; details: for MIC: Pseudomonas aeruginosa
# Experimental: Minimum inhibitory concentration (MIC)/minimum bactericidal concentration (MBC) were determined in Ca-MHB using a modified macrobroth dilution method as described by the CLSI (10). The final concentration of bacteria in each macrobroth dilution tube was approximately 5×10^5 cfu/ml of Ca-MHB. Serial twofold dilutions of meropenem were used. […] Samples (50 μl) from clear tubes and the cloudy tube with the highest drug concentration were plated on Mueller-Hinton agar (MHA) plates (Hardy Diagnostics, Santa Maria, Calif.). […] Drug carry-over effect was assessed by visual inspection of the distribution of colonies on media plates. The studies were conducted in duplicate and repeated at least once on a separate day.
# P. aeruginosa ATCC 27853 = assay: Time-kill studies and growth dynamics model, meropenem; type: cell-based, Pseudomonas aeruginosa; details: for EC50: read-out: Ck50 (the source's name)
# Experimental: Time-kill studies were conducted with different and escalating meropenem concentrations. […] An overnight culture of the isolate was diluted 30-fold with pre-warmed Ca-MHB and incubated further at 35 8 C until reaching late log phase growth. The bacterial suspension was diluted with Ca-MHB accordingly based on absorbance at 630 nm; 15 mL of the suspension was transferred to 50 mL sterile conical flasks each containing 1 mL of an antimicrobial agent solution at 16 the target concentration. The final concentration of the bacterial suspension in each flask was 1×10^8 cfu/mL. The high inoculum used was to simulate the bacterial load in severe infection, and to allow resistant sub-population(s) to be present at baseline. The experiment was conducted for 24 h in a shaker water bath set at 35 8 C. Serial samples in duplicate were obtained from each flask over 24 h, at 0 (baseline), 2, 4, 8, 12, and 24 h, to characterize the effect of various meropenem concentrations on the total bacterial population. Prior to culturing the bacteria quantitatively, the bacterial samples (0.5 mL) were centrifuged at 10000 g for 15 min, and reconstituted with sterile normal saline to their original volumes in order to minimize drug carry-over effect. Total bacterial populations were quantified by spiral plating 10 serial dilutions of the samples ([…]) onto MHA plates. The media plates were incubated in a humidified incubator (35 8 C) for 18-24 h, and the bacterial density from each sample was determined by CASBA-4 colony scanner/software (Spiral Biotech, Bethesda, Md., USA). The theoretical lower limit of detection was 400 cfu/mL.
# The time courses of bacterial burden under different drug exposures is described using a mathematical model. The population balance for a bacterial population is determined by: Rate of change of bacterial population over time=intrinsic growth rate−kill rate by antimicrobial agent or
# In contrast to the conventional approach in which the final observed effects are modelled, information over time was utilized to develop a dynamic model system that would capture bacterial growth/killing rates. The starting point was a mathematical model describing the time course of bacterial burden [biological response, N(t)] under the influence of various antimicrobial agent concentrations C(t). The rate of change of bacteria over time was expressed as the difference between the intrinsic bacterial growth rate and the kill rate provided by the antimicrobial agent (Eq. 35). Based on previous studies, a linear bacterial growth rate was adopted. Additional model parameters were used to account for other physiological phenomena such as contact inhibition (using a maximum population size) and non-linear (sigmoidal) kill rate to account for target site saturation. Regrowth was attributed to adaptation, which was explicitly modelled as increase in the concentration necessary to achieve 50% maximal kill rate (C50k), using a saturable function of antimicrobial agent selective pressure (both meropenem concentration and time) (Eq. 36).
# The experimental data derived from the time-kill studies were analysed by population analysis, using the non-parametric adaptive grid (NPAG) program (28). The killing profile observed with each meropenem concentration was input as a subject in the population analysis. The search algorithm sought the combination of parameter values and their distributions that would have the highest likelihood of explaining the observations made with all the meropenem concentrations in a single step (as opposed to fixing some parameter estimates sequentially while estimating the others). The explicit assumption was made that overall observation variance was proportional to variance of the measurement, i.e. quantitative cultures. The proportionality constant g was optimized with each cycle of the analysis.
# [2] = Mean of the parameter estimates
structure (smiles),measurement,setting,value
C[C@@H](O)[C@H]1C(=O)N2C(C(=O)O)=C(S[C@@H]3CN[C@H](C(=O)N(C)C)C3)[C@H](C)[C@H]12 [meropenem],MIC,[1]; OprD− isolate used in vivo,4 µg/mL
same,MIC,"[1]; strain MR1 (Placebo exposure, OprD−), macrobroth method",4 µg/mL
same,MIC,"[1]; strain MR2 (Cmin/MIC 0.5, OprD− & Mex+), macrobroth method",64 µg/mL
same,MIC,"[1]; strain MR3 (Cmin/MIC 1.7, OprD− & Mex+), macrobroth method, read-out: MIC",32 µg/mL
same,MIC,"[1]; strain PA 27853, macrobroth method",1 µg/mL
same,stability of resistance,[1]; resistant isolates recovered from MEM-supplemented plates,phenotypically stable
same,regrowth,"P. aeruginosa ATCC 27853; 0.25 MIC and 1 MIC, between 12 and 24 h",Regrowth was observed
same,Kg,P. aeruginosa ATCC 27853; [2],4.71 h − 1
same,Kg,P. aeruginosa ATCC 27853; meropenem Concn 0.25 mg/L,9.60 h − 1
same,Kg,P. aeruginosa ATCC 27853; meropenem Concn 1 mg/L,4.08 h − 1
same,Kg,P. aeruginosa ATCC 27853; meropenem Concn 4 mg/L,3.12 h − 1
same,Kg,P. aeruginosa ATCC 27853; meropenem Concn 16 mg/L,3.41 h − 1
same,Kg,P. aeruginosa ATCC 27853; meropenem Concn 64 mg/L,3.95 h − 1
same,H,P. aeruginosa ATCC 27853; [2],2.83
same,β,P. aeruginosa ATCC 27853; [2],5.85
same,τ,P. aeruginosa ATCC 27853; [2],158 µL/min/mg
same,MIC,"P. aeruginosa ATCC 27853; Pseudomonas aeruginosa, ATCC27853, 24 h, validation time-kill, meropenem at 2 MIC, read-out: MIC of the entire bacterial population at 24 h",> 1 µg/mL
same,EC50,"P. aeruginosa ATCC 27853; Pseudomonas aeruginosa, ATCC27853, Mean of the parameter estimates",2.29 µg/mL
same,EC50,"P. aeruginosa ATCC 27853; Pseudomonas aeruginosa, ATCC27853, meropenem Concn 0.25 mg/L",0.44 µg/mL
same,EC50,"P. aeruginosa ATCC 27853; Pseudomonas aeruginosa, ATCC27853, meropenem Concn 1 mg/L",3.53 µg/mL
same,EC50,"P. aeruginosa ATCC 27853; Pseudomonas aeruginosa, ATCC27853, meropenem Concn 4 mg/L",0.74 µg/mL
same,EC50,"P. aeruginosa ATCC 27853; Pseudomonas aeruginosa, ATCC27853, meropenem Concn 16 mg/L",2.61 µg/mL
same,EC50,"P. aeruginosa ATCC 27853; Pseudomonas aeruginosa, ATCC27853, meropenem Concn 64 mg/L",2.9 µg/mL
same,concentration necessary to attain 80% maximal kill rate (C80k),P. aeruginosa ATCC 27853; at baseline,3.8 mg/L
same,concentration necessary to attain 90% maximal kill rate (C90k),P. aeruginosa ATCC 27853; at baseline,5.0 mg/L
same,H,P. aeruginosa ATCC 27853; meropenem Concn 0.25 mg/L,3.81
same,β,P. aeruginosa ATCC 27853; meropenem Concn 0.25 mg/L,3.79
same,τ,P. aeruginosa ATCC 27853; meropenem Concn 0.25 mg/L,350 µL/min/mg
same,H,P. aeruginosa ATCC 27853; meropenem Concn 1 mg/L,1.48
same,β,P. aeruginosa ATCC 27853; meropenem Concn 1 mg/L,6.64
same,τ,P. aeruginosa ATCC 27853; meropenem Concn 1 mg/L,183 µL/min/mg
same,H,P. aeruginosa ATCC 27853; meropenem Concn 4 mg/L,1.67
same,β,P. aeruginosa ATCC 27853; meropenem Concn 4 mg/L,4.48
same,τ,P. aeruginosa ATCC 27853; meropenem Concn 4 mg/L,115 µL/min/mg
same,H,P. aeruginosa ATCC 27853; meropenem Concn 16 mg/L,7.74
same,β,P. aeruginosa ATCC 27853; meropenem Concn 16 mg/L,4.85
same,τ,P. aeruginosa ATCC 27853; meropenem Concn 16 mg/L,85 µL/min/mg
same,H,P. aeruginosa ATCC 27853; meropenem Concn 64 mg/L,0.79
same,β,P. aeruginosa ATCC 27853; meropenem Concn 64 mg/L,8.70
same,τ,P. aeruginosa ATCC 27853; meropenem Concn 64 mg/L,23.3 µL/min/mg
same,drop in bacterial burden at 24 h,P. aeruginosa ATCC 27853; meropenem concentrations 4 MIC (4 mg/L),> 2 log
same,concentration at which initial killing appeared maximized,P. aeruginosa ATCC 27853; time-kill,4 MIC
same,killing profile,P. aeruginosa ATCC 27853; time-kill,partially concentration-dependent
same,regrowth,"P. aeruginosa ATCC 27853; validation time-kill, meropenem at 2 MIC",regrowth
same,regrowth,"P. aeruginosa ATCC 27853; validation time-kill, meropenem at 32 MIC",no regrowth was observed

# Source: US8452543B2, “High throughput screening for antimicrobial dosing regimens” (priority 2005, dated 2013)
